Laboratory results taken from patent publication US20240018166A1, “SULFONYL UREA NLRP3 INFLAMMASOME INHIBITORS” (Venatorx Pharmaceuticals, Inc., priority 2020, published 2024).

Key:
[1] = MTT cell viability assay, HepG2 cells; type: cell-based; conditions: human, read-out: HepG2 Cytotoxicity CC50
Protocol: In order to assess the cytotoxicity of the compounds, an MTT cell viability assay was performed in either unstimulated THP-1 or HepG2 cells as follows. 5×10^4 THP-1 or 5×10^3 HepG2 cells were seeded into each well of a 96-well plate in 90 μL of media. Compounds were added to cells as described for the IL-10 assay and returned to the incubator for an additional 72 hours. Next, 25 μL of MTT solution (5 mg/mL in sterile PBS) was added to each well. Plates were incubated for 3 hours at 37° C., 5% CO2. Next, for THP-1 cells, 100 μl of MTT solubilization solution (40% Dimethylformamide, 2% glacial acetic acid, 16% sodium dodecyl sulfate) was then added to each well and plates were incubated at room temperature in the dark overnight. For HepG2 cells, media was aspirated, 50 μL of DMSO was added and plates were mixed briefly with an orbital plate shaker. Absorbance at 570 nm was measured using a Perkin-Elmer EnVision plate reader.
Absorbance values were converted to percentage of vehicle-treated controls. Data was then analyzed using a non-linear regression (variable slope (four-parameter)) equation in GraphPad Prism 7.0. […]

IL-1β = IL-1β inhibition assay (ELISA/HTRF of culture supernatants); type: cell-based; conditions: Homo sapiens, PMA-differentiated THP-1 cells, tested 10 μM to 0.003 μM
Procedure, shortened: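 PMA-differentiated THP-1 cells treated at final compound concentrations of 10 μM to 0.003 μM; supernatant IL-1β quantified by Quantikine ELISA or HTRF. Background-subtracted values expressed as % of vehicle controls; EC50 from four-parameter variable-slope nonlinear regression.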

[2] = MTT cell viability assay, THP-1 cells; type: cell-based; conditions: human, unstimulated THP-1 cells, read-out: THP-1 Cytotoxicity CC50
Procedure, shortened: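 Unstimulated THP-1 (5×10^4/well) or HepG2 (5×10^3/well) cells exposed to compound for 72 h, then MTT 3 h at 37 °C. Formazan solubilised overnight in DMF/acetic acid/SDS (THP-1) or in DMSO (HepG2); absorbance 570 nm. CC50 by four-parameter fit of percent vehicle control.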

IL-1 = target: T1, IL-1 (Homo sapiens, UniProt P01584); conditions: cited from earlier work
T1 construct: host or cells: patients (in vivo)

Compound	CC50 at 72 h [1] [µM]	EC50 (IL-1β) [µM]	CC50 at 72 h [2] [µM]	incidence of fatal infection (IL-1; CANTOS trial)	reduction in total cancer mortality (mostly lung cancer) compared to placebo (IL-1; high-dose) [%]
CC(C)c1cc(C#N)c(F)c(C(C)C)c1NC(=O)NS(=O)(=O)c1ccc2c(c1)C(O)OB2O (centres unmarked) [Example 52, N-((4-cyano-3-fluoro-2,6-diisopropylphenyl)carbamoyl)-1,3-dihydroxy-1,3-dihydrobenzo[c][1,2]oxaborole-5-sulfonamide]	> 10	> 10	> 10	–	–
COc1cc(-c2ccc3c(c2NC(=O)NS(=O)(=O)c2ccc4c(c2)C(O)OB4O)CCC3)ccn1 (centres unmarked) [Example 53, 1,3-dihydroxy-N-((5-(2-methoxypyridin-4-yl)-2,3-dihydro-1H-inden-4-yl)carbamoyl)-1,3-dihydrobenzo[c][1,2]oxaborole-5-sulfonamide]	> 10	1 to 10	> 10	–	–
O=C(Nc1c2c(cc3c1CCC3)CCC2)NS(=O)(=O)c1ccc2c(c1)C(O)OB2O (centres unmarked) [Example 54, N-((1,2,3,5,6,7-hexahydro-s-indacen-4-yl)carbamoyl)-1,3-dihydroxy-1,3-dihydrobenzo[c][1,2]oxaborole-5-sulfonamide]	> 10	> 10	> 10	–	–
COc1cc(-c2ccc3c(c2NC(=O)NS(=O)(=O)c2ccc4c(c2)C(C)OB4O)CCC3)ccn1 (centres unmarked) [Example 55, 1-hydroxy-N-((5-(2-methoxypyridin-4-yl)-2,3-dihydro-1H-inden-4-yl)carbamoyl)-3-methyl-1,3-dihydrobenzo[c][1,2]oxaborole-5-sulfonamide]	> 10	< 1	> 10	–	–
CC(C)c1cc(C#N)c(F)c(C(C)C)c1NC(=O)NS(=O)(=O)c1ccc2c(c1)C(C)OB2O (centres unmarked) [Example 56, N-((4-cyano-3-fluoro-2,6-diisopropylphenyl)carbamoyl)-1-hydroxy-3-methyl-1,3-dihydrobenzo[c][1,2]oxaborole-5-sulfonamide]	> 10	1 to 10	> 10	–	–
CC1(C)OB(O)c2ccc(S(=O)(=O)NC(=O)Nc3c4c(cc5c3CCC5)CCC4)cc21 [Example 57, N-((1,2,3,5,6,7-hexahydro-s-indacen-4-yl)carbamoyl)-1-hydroxy-3,3-dimethyl-1,3-dihydrobenzo[c][1,2]oxaborole-5-sulfonamide]	> 10	1 to 10	> 10	–	–
CC(CCB1O[C@@H]2C[C@@H]3C[C@@H](C3(C)C)[C@]2(C)O1)n1ccc(S(=O)(=O)NC(=O)Nc2c3c(cc4c2CCC4)CCC3)n1 (stereo partly drawn) [Example 60, N-((1,2,3,5,6,7-hexahydro-s-indacen-4-yl)carbamoyl)-1-(4-((3aS,4S,6S,7aR)-3a,5,5-trimethylhexahydro-4,6-methanobenzo[d][1,3,2]dioxaborol-2-yl)butan-2-yl)-1H-pyrazole-3-sulfonamide]	> 10	1 to 10	> 10	–	–
CC(CCn1ccc(S(=O)(=O)NC(=O)Nc2c3c(cc4c2CCC4)CCC3)n1)CB1OC(C)(C)C(C)(C)O1 (centres unmarked) [Example 61, N-((1,2,3,5,6,7-hexahydro-s-indacen-4-yl)carbamoyl)-1-(3-methyl-4-(4,4,5,5-tetramethyl-1,3,2-dioxaborolan-2-yl)butyl)-1H-pyrazole-3-sulfonamide]	> 10	< 1	> 10	–	–
CC(C)(CCn1ccc(S(=O)(=O)NC(=O)Nc2c3c(cc4c2CCC4)CCC3)n1)B1OC(C)(C)C(C)(C)O1 [Example 62, N-((1,2,3,5,6,7-hexahydro-s-indacen-4-yl)carbamoyl)-1-(3-methyl-3-(4,4,5,5-tetramethyl-1,3,2-dioxaborolan-2-yl)butyl)-1H-pyrazole-3-sulfonamide]	> 10	< 1	> 10	–	–
CC(C)c1cc(C#N)c(F)c(C(C)C)c1NC(=O)NS(=O)(=O)c1ccn(CCCB(O)O)n1 [Example 68, (3-(3-(N-((4-cyano-3-fluoro-2,6-diisopropylphenyl)carbamoyl)sulfamoyl)-1H-pyrazol-1-yl)propyl)boronic acid]	> 10	< 1	–	–	–
COc1cc(-c2ccc3c(c2NC(=O)NS(=O)(=O)c2ccn(CCCB(O)O)n2)CCC3)ccn1 [Example 69, (3-(3-(N-((5-(2-methoxypyridin-4-yl)-2,3-dihydro-1H-inden-4-yl)carbamoyl)sulfamoyl)-1H-pyrazol-1-yl)propyl)boronic acid]	> 10	< 1	–	–	–
CC1(C)OB(CCCC2(S(=O)(=O)NC(=O)Nc3c4c(cc5c3CCC5)CCC4)CC2)OC1(C)C [Example 70, N-((1,2,3,5,6,7-hexahydro-s-indacen-4-yl)carbamoyl)-1-(3-(4,4,5,5-tetramethyl-1,3,2-dioxaborolan-2-yl)propyl)cyclopropane-1-sulfonamide]	> 10	1 to 10	–	–	–
O=C(Nc1c2c(cc3c1CCC3)CCC2)NS(=O)(=O)C1(CCCB(O)O)CC1 [Example 71, (3-(1-(N-((1,2,3,5,6,7-hexahydro-s-indacen-4-yl)carbamoyl)sulfamoyl)cyclopropyl)propyl)boronic acid]	> 10	1 to 10	–	–	–
O=C(Nc1c2c(cc3c1CCC3)CCC2)NS(=O)(=O)C1CCN(CCCB(O)O)CC1 [Example 72, (3-(4-(N-((1,2,3,5,6,7-hexahydro-s-indacen-4-yl)carbamoyl)sulfamoyl)piperidin-1-yl)propyl)boronic acid]	> 10	1 to 10	–	–	–
CC1(C)OB(CCCN2CC(S(=O)(=O)NC(=O)Nc3c4c(cc5c3CCC5)CCC4)C2)OC1(C)C [Example 73, N-((1,2,3,5,6,7-hexahydro-s-indacen-4-yl)carbamoyl)-1-(3-(4,4,5,5-tetramethyl-1,3,2-dioxaborolan-2-yl)propyl)azetidine-3-sulfonamide]	> 10	< 1	–	–	–
canakinumab: the neutralizing IL-10 antibody canakinumab (anti-IL-1, Novartis)	–	–	–	higher incidence of fatal infection	> 50
